± gives the expanded uncertainty stated by the source.
Assay: xn = mol fraction of the nth substance listed
Details: Gas, Oscillating disk viscometry

FC(F)C(F)(F)F [pentafluoroethane] + CCC
Details	viscosity [mPa·s]
298.15 K, 101.2 kPa, x1 = 0.7503	0.01219 ± 0.00044
298.15 K, 102 kPa, x1 = 0.5011	0.01122 ± 0.00042
298.15 K, 197.9 kPa, x1 = 0.7503	0.01223 ± 0.00044
298.15 K, 198.2 kPa, x1 = 0.5011	0.01121 ± 0.00042
298.15 K, 294.6 kPa, x1 = 0.7503	0.01221 ± 0.00044
298.15 K, 302.6 kPa, x1 = 0.5011	0.01121 ± 0.00042
298.15 K, 391.5 kPa, x1 = 0.7503	0.01222 ± 0.00044
298.15 K, 396.1 kPa, x1 = 0.5011	0.01123 ± 0.00042
298.15 K, 492.3 kPa, x1 = 0.7503	0.01223 ± 0.00044
298.15 K, 499.4 kPa, x1 = 0.5011	0.01123 ± 0.00042
298.15 K, 589.1 kPa, x1 = 0.7503	0.01225 ± 0.00044
298.15 K, 591.1 kPa, x1 = 0.5011	0.01124 ± 0.00042
298.15 K, 687.4 kPa, x1 = 0.5011	0.01125 ± 0.00042
298.15 K, 689 kPa, x1 = 0.7503	0.01229 ± 0.00044
298.15 K, 789 kPa, x1 = 0.5011	0.01128 ± 0.00042
298.15 K, 803.5 kPa, x1 = 0.7503	0.01229 ± 0.00044
298.15 K, 913.4 kPa, x1 = 0.7503	0.01235 ± 0.00044
298.15 K, 928.2 kPa, x1 = 0.5011	0.01131 ± 0.00042
298.15 K, 1012.4 kPa, x1 = 0.7503	0.01248 ± 0.00044
298.15 K, 1025.1 kPa, x1 = 0.5011	0.01138 ± 0.00042
298.15 K, 1231.3 kPa, x1 = 0.7503	0.01257 ± 0.00045
323.15 K, 101.8 kPa, x1 = 0.5011	0.01214 ± 0.00044
323.15 K, 102.2 kPa, x1 = 0.7503	0.01319 ± 0.00046
323.15 K, 199 kPa, x1 = 0.7503	0.01317 ± 0.00046
323.15 K, 213.9 kPa, x1 = 0.5011	0.01213 ± 0.00044
323.15 K, 294.9 kPa, x1 = 0.7503	0.0132 ± 0.00046
323.15 K, 391.1 kPa, x1 = 0.7503	0.01321 ± 0.00046
323.15 K, 395.8 kPa, x1 = 0.5011	0.01215 ± 0.00044
323.15 K, 519.4 kPa, x1 = 0.7503	0.01322 ± 0.00046
323.15 K, 592.8 kPa, x1 = 0.5011	0.01219 ± 0.00044
323.15 K, 636.3 kPa, x1 = 0.7503	0.01325 ± 0.00046
323.15 K, 766.4 kPa, x1 = 0.7503	0.01326 ± 0.00046
323.15 K, 788.9 kPa, x1 = 0.5011	0.01225 ± 0.00044
323.15 K, 883.2 kPa, x1 = 0.7503	0.01334 ± 0.00046
323.15 K, 983.8 kPa, x1 = 0.5011	0.01228 ± 0.00044
323.15 K, 1005.1 kPa, x1 = 0.7503	0.01339 ± 0.00047
323.15 K, 1125.1 kPa, x1 = 0.7503	0.01346 ± 0.00047
323.15 K, 1181.8 kPa, x1 = 0.5011	0.01241 ± 0.00044
323.15 K, 1249.7 kPa, x1 = 0.7503	0.01351 ± 0.00047
323.15 K, 1371.2 kPa, x1 = 0.7503	0.01361 ± 0.00047
323.15 K, 1374.9 kPa, x1 = 0.5011	0.01255 ± 0.00045
323.15 K, 1486.3 kPa, x1 = 0.7503	0.01367 ± 0.00047
323.15 K, 1618.9 kPa, x1 = 0.7503	0.01379 ± 0.00047
323.15 K, 1667.7 kPa, x1 = 0.5011	0.01272 ± 0.00045
323.15 K, 1736.1 kPa, x1 = 0.7503	0.01387 ± 0.00048
323.15 K, 1862.6 kPa, x1 = 0.5011	0.01289 ± 0.00046
323.15 K, 1864.4 kPa, x1 = 0.7503	0.01404 ± 0.00048
323.15 K, 1985.7 kPa, x1 = 0.5011	0.013 ± 0.00046
323.15 K, 1992.1 kPa, x1 = 0.7503	0.0142 ± 0.00049
323.15 K, 2071.4 kPa, x1 = 0.5011	0.01314 ± 0.00046
323.15 K, 2101.6 kPa, x1 = 0.7503	0.01435 ± 0.00049
323.15 K, 2211.6 kPa, x1 = 0.7503	0.01452 ± 0.00049
323.15 K, 2349.2 kPa, x1 = 0.7503	0.01482 ± 0.0005
348.15 K, 101.1 kPa, x1 = 0.5011	0.01295 ± 0.00046
348.15 K, 101.4 kPa, x1 = 0.7503	0.01409 ± 0.00048
348.15 K, 198.4 kPa, x1 = 0.5011	0.01299 ± 0.00046
348.15 K, 199.7 kPa, x1 = 0.7503	0.01407 ± 0.00048
348.15 K, 305.5 kPa, x1 = 0.5011	0.01297 ± 0.00046
348.15 K, 388.2 kPa, x1 = 0.7503	0.01416 ± 0.00048
348.15 K, 401.6 kPa, x1 = 0.5011	0.01296 ± 0.00046
348.15 K, 588.6 kPa, x1 = 0.7503	0.01424 ± 0.00049
348.15 K, 592.5 kPa, x1 = 0.5011	0.01307 ± 0.00046
348.15 K, 750.8 kPa, x1 = 0.7503	0.01427 ± 0.00049
348.15 K, 784.8 kPa, x1 = 0.5011	0.01316 ± 0.00046
348.15 K, 978.4 kPa, x1 = 0.7503	0.01432 ± 0.00049
348.15 K, 986 kPa, x1 = 0.5011	0.01318 ± 0.00046
348.15 K, 1173.8 kPa, x1 = 0.7503	0.01443 ± 0.00049
348.15 K, 1178.4 kPa, x1 = 0.5011	0.01326 ± 0.00046
348.15 K, 1374.6 kPa, x1 = 0.5011	0.01335 ± 0.00046
348.15 K, 1374.7 kPa, x1 = 0.7503	0.01455 ± 0.00049
348.15 K, 1565.7 kPa, x1 = 0.7503	0.01468 ± 0.0005
348.15 K, 1571.2 kPa, x1 = 0.5011	0.0135 ± 0.00047
348.15 K, 1770.2 kPa, x1 = 0.7503	0.01482 ± 0.0005
348.15 K, 1772.3 kPa, x1 = 0.5011	0.01362 ± 0.00047
348.15 K, 1960.9 kPa, x1 = 0.5011	0.01374 ± 0.00047
348.15 K, 1963.9 kPa, x1 = 0.7503	0.01499 ± 0.0005
348.15 K, 2130.4 kPa, x1 = 0.7503	0.01511 ± 0.00051
348.15 K, 2139.9 kPa, x1 = 0.5011	0.01387 ± 0.00048
348.15 K, 2297.9 kPa, x1 = 0.5011	0.01404 ± 0.00048
348.15 K, 2335.5 kPa, x1 = 0.7503	0.01538 ± 0.00051
348.15 K, 2492.4 kPa, x1 = 0.7503	0.01555 ± 0.00052
348.15 K, 2501 kPa, x1 = 0.5011	0.0143 ± 0.00049
348.15 K, 2660.6 kPa, x1 = 0.7503	0.01583 ± 0.00052
348.15 K, 2695.6 kPa, x1 = 0.5011	0.01451 ± 0.00049
348.15 K, 2804.7 kPa, x1 = 0.7503	0.01604 ± 0.00053
348.15 K, 2928.8 kPa, x1 = 0.7503	0.01629 ± 0.00053
348.15 K, 2932.5 kPa, x1 = 0.5011	0.01494 ± 0.0005
348.15 K, 3079.4 kPa, x1 = 0.7503	0.01666 ± 0.00054
348.15 K, 3111.7 kPa, x1 = 0.5011	0.01524 ± 0.00051
348.15 K, 3230.6 kPa, x1 = 0.7503	0.01697 ± 0.00055
348.15 K, 3383.2 kPa, x1 = 0.7503	0.01739 ± 0.00056
373.15 K, 101 kPa, x1 = 0.7503	0.01505 ± 0.00051
373.15 K, 101.5 kPa, x1 = 0.5011	0.01376 ± 0.00047
373.15 K, 220 kPa, x1 = 0.7503	0.01506 ± 0.00051
373.15 K, 225.5 kPa, x1 = 0.5011	0.01381 ± 0.00048
373.15 K, 389.7 kPa, x1 = 0.7503	0.0151 ± 0.00051
373.15 K, 397.7 kPa, x1 = 0.5011	0.01383 ± 0.00048
373.15 K, 585.6 kPa, x1 = 0.5011	0.01386 ± 0.00048
373.15 K, 637.7 kPa, x1 = 0.7503	0.01515 ± 0.00051
373.15 K, 781.4 kPa, x1 = 0.5011	0.01393 ± 0.00048
373.15 K, 877.8 kPa, x1 = 0.7503	0.01525 ± 0.00051
373.15 K, 980.5 kPa, x1 = 0.5011	0.01401 ± 0.00048
373.15 K, 1141.8 kPa, x1 = 0.7503	0.01537 ± 0.00051
373.15 K, 1174.2 kPa, x1 = 0.5011	0.01407 ± 0.00048
373.15 K, 1370.5 kPa, x1 = 0.5011	0.01413 ± 0.00048
373.15 K, 1477.4 kPa, x1 = 0.7503	0.01552 ± 0.00052
373.15 K, 1560.4 kPa, x1 = 0.5011	0.01422 ± 0.00049
373.15 K, 1717 kPa, x1 = 0.7503	0.01566 ± 0.00052
373.15 K, 1753.9 kPa, x1 = 0.5011	0.01434 ± 0.00049
373.15 K, 1949.4 kPa, x1 = 0.5011	0.01447 ± 0.00049
373.15 K, 1961.1 kPa, x1 = 0.7503	0.01583 ± 0.00052
373.15 K, 2125.3 kPa, x1 = 0.5011	0.01458 ± 0.00049
373.15 K, 2185.2 kPa, x1 = 0.7503	0.01605 ± 0.00053
373.15 K, 2318.9 kPa, x1 = 0.5011	0.01469 ± 0.0005
373.15 K, 2415.9 kPa, x1 = 0.7503	0.01623 ± 0.00053
373.15 K, 2508.1 kPa, x1 = 0.5011	0.01487 ± 0.0005
373.15 K, 2631.2 kPa, x1 = 0.7503	0.01641 ± 0.00054
373.15 K, 2708.4 kPa, x1 = 0.5011	0.01508 ± 0.00051
373.15 K, 2950.3 kPa, x1 = 0.7503	0.01679 ± 0.00055
373.15 K, 2961.4 kPa, x1 = 0.5011	0.01536 ± 0.00051
373.15 K, 3209.9 kPa, x1 = 0.7503	0.01714 ± 0.00055
373.15 K, 3217 kPa, x1 = 0.5011	0.01568 ± 0.00052
373.15 K, 3421.2 kPa, x1 = 0.7503	0.01749 ± 0.00056

From the NIST ThermoML archive (doi:10.1007/s10765-006-0051-4)
